Molecular target: Human DGAT2 (Homo sapiens (Human), UniProt Q96PD7)
Assay: DGAT2 Enzymatic Activity Assay (triolein formation, LC/MS/MS)
Format: biochemical
Conditions: hDGAT2 Sf-9 membrane prep; 25 μM diolein, 10 μM oleoyl-CoA; room temperature
Procedure, shortened: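 Membranes from Sf-9 cells infected with untagged hDGAT2 baculovirus, 10 ng/μL, at room temperature in 100 mM Tris.Cl pH 7.0, 20 mM MgCl2, 5% ethanol with 25 μM diolein and 10 μM oleoyl-CoA. Triolein quantified by LC/MS/MS against spiked internal standard; IC50 from 4-parameter sigmoidal fit.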

Sequence of Human DGAT2 (Q96PD7 whole entry): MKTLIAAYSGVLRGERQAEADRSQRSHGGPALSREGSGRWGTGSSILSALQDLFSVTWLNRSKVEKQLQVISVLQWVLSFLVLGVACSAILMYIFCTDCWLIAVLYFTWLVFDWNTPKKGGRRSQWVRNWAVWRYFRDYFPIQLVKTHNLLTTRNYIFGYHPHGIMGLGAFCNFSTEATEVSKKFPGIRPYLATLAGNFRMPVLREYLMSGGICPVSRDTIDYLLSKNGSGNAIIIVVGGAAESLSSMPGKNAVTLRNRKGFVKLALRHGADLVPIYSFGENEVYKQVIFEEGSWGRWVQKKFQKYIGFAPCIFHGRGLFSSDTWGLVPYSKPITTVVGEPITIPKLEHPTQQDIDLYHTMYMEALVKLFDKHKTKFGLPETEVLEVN

| IC50 | Structure (SMILES) |
| --- | --- |
| 445 nM | O=C(NCc1cnsn1)c1ccc2c(-c3ccccc3Cl)nn(-c3ccc(F)cc3)c2c1 [Example 40, 3-(2-chlorophenyl)-1-(4-fluorophenyl)-N-(1,2,5-thiadiazol-3-ylmethyl)-1H-indazole-6-carboxamide] |
| 26 nM | CC(C)(CO)NC(=O)c1ccc2c(-c3ccccc3Cl)nn(-c3ccc(F)cc3)c2c1 [Example 42, 3-(2-chlorophenyl)-1-(4-fluorophenyl)-N-(2-hydroxy-1,1-dimethylethyl)-1H-indazole-6-carboxamide] |
| 11 nM | O=C(NC1(CO)CCCC1)c1ccc2c(-c3ccccc3Cl)nn(-c3ccc(F)cc3)c2c1 [Example 43, 3-(2-chlorophenyl)-1-(4-fluorophenyl)-N-[1-(hydroxymethyl)cyclopentyl]-1H-indazole-6-carboxamide] |
| 176 nM | O=C(NCC1(O)CCCCC1)c1ccc2c(-c3ccccc3Cl)nn(-c3ccc(F)cc3)c2c1 [Example 44, 3-(2-chlorophenyl)-1-(4-fluorophenyl)-N-[(1-hydroxycyclohexyl)methyl]-1H-indazole-6-carboxamide] |
| 424 nM | COCCNC(=O)c1ccc2c(-c3ccccc3Cl)nn(-c3ccc(F)cc3)c2c1 [Example 45, 3-(2-chlorophenyl)-1-(4-fluorophenyl)-N-(2-methoxyethyl)-1H-indazole-6-carboxamide] |
| 49 nM | CC(CO)(CO)NC(=O)c1ccc2c(-c3ccccc3Cl)nn(-c3ccc(F)cc3)c2c1 [Example 46, 3-(2-chlorophenyl)-1-(4-fluorophenyl)-N-[2-hydroxy-1-(hydroxymethyl)-1-methylethyl]-1H-indazole-6-carboxamide] |
| 47 nM | O=C(NC1(CO)CCOCC1)c1ccc2c(-c3ccccc3Cl)nn(-c3ccc(F)cc3)c2c1 [Example 47, 3-(2-chlorophenyl)-1-(4-fluorophenyl)-N-[4-(hydroxymethyl)tetrahydro-2H-pyran-4-yl]-1H-indazole-6-carboxamide] |
| 79 nM | O=C(NCc1cnc(C(F)(F)F)nc1)c1ccc2c(-c3ccccc3Cl)nn(-c3ccc(F)cc3)c2c1 [Example 49, 3-(2-chlorophenyl)-1-(4-fluorophenyl)-N-{[2-(trifluoromethyl)pyrimidin-5-yl]methyl}-1H-indazole-6-carboxamide] |
| 34 nM | C[C@H](NC(=O)c1ccc2c(-c3ccccc3Cl)nn(-c3ccc(F)cc3)c2c1)c1cnc(C(F)(F)F)nc1 [Example 50, 3-(2-chlorophenyl)-1-(4-fluorophenyl)-N-{(1S)-1-[2-(trifluoromethyl)pyrimidin-5-yl]ethyl}-1H-indazole-6-carboxamide] |
| 184 nM | C[C@H](CS(N)(=O)=O)NC(=O)c1ccc2c(-c3ccccc3Cl)nn(-c3ccc(F)cc3)c2c1 [Example 51, 3-(2-chlorophenyl)-1-(4-fluorophenyl)-N-[(1R)-1-methyl-2-sulfamoylethyl]-1H-indazole-6-carboxamide] |
| 32 nM | O=C(NCCS(=O)(=O)NC1CCCCC1)c1ccc2c(-c3ccccc3Cl)nn(-c3ccc(F)cc3)c2c1 [Example 53, 3-(2-chlorophenyl)-N-[2-(cyclohexylsulfamoyl)ethyl]-1-(4-fluorophenyl)-1H-indazole-6-carboxamide] |
| 121 nM | O=C(NCCS(=O)(=O)NCc1ccccc1)c1ccc2c(-c3ccccc3Cl)nn(-c3ccc(F)cc3)c2c1 [Example 54, N-[2-(benzylsulfamoyl)ethyl]-3-(2-chlorophenyl)-1-(4-fluorophenyl)-1H-indazole-6-carboxamide] |
| 383 nM | O=C(NCCS(=O)(=O)Nc1ccccn1)c1ccc2c(-c3ccccc3Cl)nn(-c3ccc(F)cc3)c2c1 [Example 55, 3-(2-chlorophenyl)-1-(4-fluorophenyl)-N-[2-(pyridin-2-ylsulfamoyl)ethyl]-1H-indazole-6-carboxamide] |
| 22 nM | O=C(NCCS(=O)(=O)Nc1ccccc1)c1ccc2c(-c3ccccc3Cl)nn(-c3ccc(F)cc3)c2c1 [Example 56, 3-(2-chlorophenyl)-1-(4-fluorophenyl)-N-[2-(phenylsulfamoyl)ethyl]-1H-indazole-6-carboxamide] |
| 16 nM | O=C(NCCS(=O)(=O)Nc1cccnc1)c1ccc2c(-c3ccccc3Cl)nn(-c3ccc(F)cc3)c2c1 [Example 60, 3-(2-chlorophenyl)-1-(4-fluorophenyl)-N-[2-(pyridin-3-ylsulfamoyl)ethyl]-1H-indazole-6-carboxamide] |
| 73 nM | O=C(NC1(CO)CC1)c1ccc2c(-c3ccccc3Cl)nn(-c3ccc(F)cc3)c2c1 [Example 61, 3-(2-chlorophenyl)-1-(4-fluorophenyl)-N-[1-(hydroxymethyl)cyclopropyl]-1H-indazole-6-carboxamide] |
| 580 nM | CCOC(=O)C1(NC(=O)c2ccc3c(-c4ccccc4Cl)nn(-c4ccc(F)cc4)c3c2)CC1 [Example 62, ethyl 1-({[3-(2-chlorophenyl)-1-(4-fluorophenyl)-1H-indazol-6-yl]carbonyl}amino)cyclopropane carboxylate] |

| IC50 | Structure (SMILES) |
| --- | --- |
| 405 nM | COC(=O)C1(NC(=O)c2ccc3c(-c4ccccc4Cl)nn(-c4ccc(F)cc4)c3c2)CCCC1 [Example 63, methyl 1-({[3-(2-chlorophenyl)-1-(4-fluorophenyl)-1H-indazol-6-yl]carbonyl}amino)cyclopentane-carboxylate] |
| 310 nM | C[C@@H](CO)NC(=O)c1ccc2c(-c3ccccc3Cl)nn(-c3ccc(F)cc3)c2c1 [Example 68, 3-(2-chlorophenyl)-1-(4-fluorophenyl)-N-[(1S)-2-hydroxy-1-methylethyl]-1H-indazole-6-carboxamide] |
| 8 nM | CC(C)[C@@H](CO)NC(=O)c1ccc2c(-c3ccccc3Cl)nn(-c3ccc(F)cc3)c2c1 [Example 69, 3-(2-chlorophenyl)-1-(4-fluorophenyl)-N-[(1S)-1-(hydroxymethyl)-2-methylpropyl]-1H-indazole-6-carboxamide] |
| 607 nM | CC(C)(O)C1(NC(=O)c2ccc3c(-c4ccccc4Cl)nn(-c4ccc(F)cc4)c3c2)CCOCC1 [Example 70, 3-(2-chlorophenyl)-1-(4-fluorophenyl)-N-[4-(1-hydroxy-1-methylethyl)tetrahydro-2H-pyran-4-yl]-1H-indazole-6-carboxamide] |
| 526 nM | O=C(N[C@H]1c2ccccc2OC[C@H]1O)c1ccc2c(-c3ccccc3Cl)nn(-c3ccc(F)cc3)c2c1 [Example 71, 3-(2-chlorophenyl)-1-(4-fluorophenyl)-N-[(3S,4S)-3-hydroxy-3,4-dihydro-2H-chromen-4-yl]-1H-indazole-6-carboxamide] |
| 22 nM | C[C@@H]1CC[C@@H](O)[C@H]1NC(=O)c1ccc2c(-c3ccccc3Cl)nn(-c3ccc(F)cc3)c2c1 [Example 72, 3-(2-chlorophenyl)-1-(4-fluorophenyl)-N-[(1S,2R,5R)-2-hydroxy-5-methylcyclopentyl]-1H-indazole-6-carboxamide] |
| 534 nM | CCCCC(NC(=O)c1ccc2c(-c3ccccc3Cl)nn(-c3ccc(F)cc3)c2c1)C(O)C(F)(F)F (stereo not shown) [Example 73, 3-(2-chlorophenyl)-1-(4-fluorophenyl)-N-[1-(2,2,2-trifluoro-1-hydroxyethyl)pentyl]-1H-indazole-6-carboxamide] |
| 16 nM | COC[C@H](NC(=O)c1ccc2c(-c3ccccc3Cl)nn(-c3ccc(F)cc3)c2c1)[C@@H](O)c1ccccc1 [Example 74, 3-(2-chlorophenyl)-1-(4-fluorophenyl)-N-[(1S,2S)-2-hydroxy-1-(methoxymethyl)-2-phenylethyl]-1H-indazole-6-carboxamide] |
| 772 nM | C[C@H](CO)NC(=O)c1ccc2c(-c3ccccc3Cl)nn(-c3ccc(F)cc3)c2c1 [Example 79, 3-(2-chlorophenyl)-1-(4-fluorophenyl)-N-[(1R)-hydroxy-1-methylethyl]-1H-indazole-6-carboxamide] |
| 127 nM | O=C(N[C@@H](CO)[C@@H](O)c1ccccc1)c1ccc2c(-c3ccccc3Cl)nn(-c3ccc(F)cc3)c2c1 [Example 80, 3-(2-chlorophenyl)-1-(4-fluorophenyl)-N-[(1S,2S)-2-hydroxy-1-(hydroxymethyl)-2-phenylethyl]-1H-indazole-6-carboxamide] |
| 88 nM | CC(NC(=O)c1ccc2c(-c3ccccc3Cl)nn(-c3ccc(F)cc3)c2c1)C(O)C(F)(F)F (stereo not shown) [Example 81, 3-(2-chlorophenyl)-1-(4-fluorophenyl)-N-(3,3,3-trifluoro-2-hydroxy-1-methylpropyl)-1H-indazole-6-carboxamide] |
| 36 nM | O=C(N[C@H](CO)c1ccccc1)c1ccc2c(-c3ccccc3Cl)nn(-c3ccc(F)cc3)c2c1 [Example 82, 3-(2-chlorophenyl)-1-(4-fluorophenyl)-N-[(1S)-2-hydroxy-1-phenylethyl]-1H-indazole-6-carboxamide] |
| 156 nM | O=C(NC1CCCC1)c1ccc2c(-c3ccccc3Cl)nn(-c3ccc(F)cc3)c2c1 [Example 84, 3-(2-chlorophenyl)-N-cyclopentyl-1-(4-fluorophenyl)-1H-indazole-6-carboxamide] |
| 432 nM | O=C(NC(CO)(CO)CO)c1ccc2c(-c3ccccc3Cl)nn(-c3ccc(F)cc3)c2c1 [Example 85, 3-(2-chlorophenyl)-1-(4-fluorophenyl)-N-[2-hydroxy-1,1-bis(hydroxymethyl)ethyl]-1H-indazole-6-carboxamide] |
| 505 nM | O=C(NC1CCOCC1)c1ccc2c(-c3ccccc3Cl)nn(-c3ccc(F)cc3)c2c1 [Example 86, 3-(2-chlorophenyl)-1-(4-fluorophenyl)-N-(tetrahydro-2H-pyran-4-yl)-1H-indazole-6-carboxamide] |
| 198 nM | O=C(N[C@@H]1C[C@H](CO)[C@@H](O)[C@H]1O)c1ccc2c(-c3ccccc3Cl)nn(-c3ccc(F)cc3)c2c1 [Example 87, 3-(2-chlorophenyl)-N-[(1R,2S,3R,4R)-2,3-dihydroxy-4-(hydroxymethyl)cyclopentyl]-1-(4-fluorophenyl)-1H-indazole-6-carboxamide] |
| 15 nM | O=C(NC1(CO)CCC1)c1ccc2c(-c3ccccc3Cl)nn(-c3ccc(F)cc3)c2c1 [Example 88, 3-(2-chlorophenyl)-1-(4-fluorophenyl)-N-[1-(hydroxymethyl)cyclobutyl]-1H-indazole-6-carboxamide] |
